From article PMC3929961 (Molecular cell, 2013)

How the values were obtained:
Type in all cases: binding
[1] = biological target: T1, EcDnaB (Escherichia coli, UniProt P0ACB0); test: negative-stain EM 2D class averages and SAXS; conditions: 0-1 mM AMPPNP in SAXS
[2] = biological target: T2, GstDnaB (Geobacillus stearothermophilus, UniProt Q9X4C9); test: negative-stain EM 2D class averages
T2 sequence (Q9X4C9 1-454): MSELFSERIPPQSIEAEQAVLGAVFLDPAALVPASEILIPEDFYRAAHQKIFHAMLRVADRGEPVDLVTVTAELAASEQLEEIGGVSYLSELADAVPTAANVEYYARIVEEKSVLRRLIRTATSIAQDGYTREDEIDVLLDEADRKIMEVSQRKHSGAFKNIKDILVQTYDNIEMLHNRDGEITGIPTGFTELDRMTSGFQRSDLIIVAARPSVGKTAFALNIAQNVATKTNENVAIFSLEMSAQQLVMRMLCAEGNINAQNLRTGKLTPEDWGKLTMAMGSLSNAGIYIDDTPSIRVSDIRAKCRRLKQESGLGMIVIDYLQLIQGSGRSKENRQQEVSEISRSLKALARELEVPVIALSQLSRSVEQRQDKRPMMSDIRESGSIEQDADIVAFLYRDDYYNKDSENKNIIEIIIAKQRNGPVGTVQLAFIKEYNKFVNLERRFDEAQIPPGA

[3] = biological target: T1, EcDnaB; test: negative-stain EM 2D class averages

T1 sequence (P0ACB0 2-471): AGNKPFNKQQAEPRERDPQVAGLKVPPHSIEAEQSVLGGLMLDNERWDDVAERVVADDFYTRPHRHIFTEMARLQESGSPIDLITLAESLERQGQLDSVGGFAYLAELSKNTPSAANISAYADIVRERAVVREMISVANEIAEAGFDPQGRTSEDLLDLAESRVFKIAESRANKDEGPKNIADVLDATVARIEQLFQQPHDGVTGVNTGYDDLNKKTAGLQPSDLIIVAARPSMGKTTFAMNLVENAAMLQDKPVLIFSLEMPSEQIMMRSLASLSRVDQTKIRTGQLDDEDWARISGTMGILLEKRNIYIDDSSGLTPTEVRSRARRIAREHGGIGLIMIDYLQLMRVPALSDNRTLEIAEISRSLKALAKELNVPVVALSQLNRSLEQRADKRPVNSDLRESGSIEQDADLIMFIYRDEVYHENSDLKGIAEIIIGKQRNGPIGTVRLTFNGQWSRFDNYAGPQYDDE

Nc1ncnc2c1ncn2[C@@H]1O[C@H](COP(=O)(O)OP(=O)(O)NP(=O)(O)O)[C@@H](O)[C@H]1O [AMPPNP]
negative-stain EM 2D class averages and SAXS (collar constriction) [1]: two kinds of 2D class averages were observed for EcDnaB in the presence of ATPγS

Nc1ncnc2c1ncn2[C@@H]1O[C@H](COP(=O)(O)OP(=O)(O)OP(=O)(O)O)[C@@H](O)[C@H]1O [ATP]
negative-stain EM 2D class averages (collar constriction) [2]: 2D EM analysis again revealed evidence for a constricted species in the presence of ATP

Nc1ncnc2c1ncn2[C@@H]1O[C@H](COP(=O)(O)OP(=O)(O)OP(O)(O)=S)[C@@H](O)[C@H]1O [ATPγS]
negative-stain EM 2D class averages (collar constriction) [3]: two kinds of 2D class averages were observed for EcDnaB in the presence of ATPγS
